Test results from US12503436B2, “Compounds and compositions for treating conditions associated with STING activity” (NOVARTIS PHARMA AG, priority 2021, dated 2025).

Target: STING (Homo sapiens, UniProt Q86WV6, G230A/H232R/R293Q/R71H)
Assay: STING reporter assay in THP1-Dual KO-IFNAR2 cells (2′3′cGAMP stimulation, luciferase reporter)
Type: cell-based
Conditions: 15 μM 2′3′cGAMP stimulation, 24 h, read-out: Pharmaron, THP1_IFNAR2 STING 24 h Luci Normalized: GeoMean EC50
How it was run: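 EC50 from secreted luciferase (QUANTI-Luc Plus luminescence of supernatant) after 24 h at 37 °C, 5% CO2. Cells: THP1-Dual KO-IFNAR2, treated with compound (0.0017-100 μM final) plus lipofected 2′3′cGAMP at 15 μM final.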

Sequence of STING (Q86WV6 whole entry R71H/G230A/H232R/R293Q): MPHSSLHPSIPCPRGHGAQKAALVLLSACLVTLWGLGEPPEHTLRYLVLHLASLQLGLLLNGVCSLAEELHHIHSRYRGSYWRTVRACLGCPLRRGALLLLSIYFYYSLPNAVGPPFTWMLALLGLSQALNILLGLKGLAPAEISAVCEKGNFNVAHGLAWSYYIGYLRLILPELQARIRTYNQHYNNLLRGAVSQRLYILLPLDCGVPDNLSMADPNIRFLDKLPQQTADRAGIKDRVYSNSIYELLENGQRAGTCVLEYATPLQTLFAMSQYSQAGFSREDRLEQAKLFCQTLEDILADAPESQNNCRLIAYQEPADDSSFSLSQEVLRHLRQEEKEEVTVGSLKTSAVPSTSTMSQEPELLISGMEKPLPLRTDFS

SMILES | EC50 [µM]
CC1(C)CC1C(=O)Nc1c[nH]c2ccc(O[C@H]3C[C@@H](c4ccc(C(F)(F)F)cc4)C3)cc12 (stereo partly drawn) [Compound 359, 2,2-dimethyl-N-(5-(cis-3-(4-(trifluoromethyl)phenyl)cyclobutoxy)-1H-indol-3-yl)cyclopropane-1-carboxamide] | 0.04 to 0.2
CC1(C(=O)Nc2c[nH]c3ccc(O[C@H]4C[C@@H](c5ccc(C(F)(F)F)cc5)C4)cc23)CCC1 [Compound 360, 1-methyl-N-(5-(cis-3-(4-(trifluoromethyl)phenyl)cyclobutoxy)-1H-indol-3-yl)cyclobutane-1-carboxamide] | 0.2 to 1
CC1(C)CC(C(=O)Nc2c[nH]c3ccc(O[C@H]4C[C@@H](c5ccc(C(F)(F)F)cc5)C4)cc23)C1 [Compound 361, 3,3-dimethyl-N-(5-(cis-3-(4-(trifluoromethyl)phenyl)cyclobutoxy)-1H-indol-3-yl)cyclobutane-1-carboxamide] | 0.04 to 0.2
N#CC1(C(=O)Nc2c[nH]c3ccc(O[C@H]4C[C@@H](c5ccc(C(F)(F)F)cc5)C4)cc23)CC1 [Compound 362, 1-cyano-N-(5-(cis-3-(4-(trifluoromethyl)phenyl)cyclobutoxy)-1H-indol-3-yl)cyclopropane-1-carboxamide] | 0.2 to 1
CC1(C(=O)Nc2c[nH]c3ccc(O[C@H]4C[C@@H](c5ccc(C(F)(F)F)cc5)C4)cc23)CCOCC1 [Compound 363, 4-methyl-N-(5-(cis-3-(4-(trifluoromethyl)phenyl)cyclobutoxy)-1H-indol-3-yl)tetrahydro-2H-pyran-4-carboxamide] | 0.2 to 1
O=C(Nc1c[nH]c2ccc(O[C@H]3C[C@@H](c4ccc(C(F)(F)F)cc4)C3)cc12)C1CC1(F)F (stereo partly drawn) [Compound 364, 2,2-difluoro-N-(5-(cis-3-(4-(trifluoromethyl)phenyl)cyclobutoxy)-1H-indol-3-yl)cyclopropane-1-carboxamide] | 0.04 to 0.2
O=C(Nc1c[nH]c2ccc(O[C@H]3C[C@@H](c4ccc(C(F)(F)F)cc4)C3)cc12)C1CCOCC1 [Compound 365, N-(5-(cis-3-(4-(trifluoromethyl)phenyl)cyclobutoxy)-1H-indol-3-yl)tetrahydro-2H-pyran-4-carboxamide] | 0.04 to 0.2
O=C(Nc1c[nH]c2ccc(OCC[C@@H]3C[C@@H]4CN(CC(F)(F)F)C[C@@H]4C3)cc12)C1(C(F)(F)F)CC1 [Compound 366, N-(5-(2-((3aR,5r,6aS)-2-(2,2,2-trifluoroethyl)octahydrocyclopenta[c]pyrrol-5-yl)ethoxy)-1H-indol-3-yl)-1-(trifluoromethyl)cyclopropane-1-carboxamide] | 0.2 to 1
CC(C)(C)C(=O)Nc1c[nH]c2ccc(OCC[C@@H]3C[C@@H]4CN(CC(F)(F)F)C[C@@H]4C3)cc12 [Compound 367, N-(5-(2-((3aR,5r,6aS)-2-(2,2,2-trifluoroethyl)octahydrocyclopenta[c]pyrrol-5-yl)ethoxy)-1H-indol-3-yl)pivalamide] | 0.2 to 1
CC1(C(=O)Nc2c[nH]c3ccc(OCC[C@@H]4C[C@@H]5CN(CC(F)(F)F)C[C@@H]5C4)cc23)CCC1 [Compound 369, 1-methyl-N-(5-(2-((3aR,5r,6aS)-2-(2,2,2-trifluoroethyl)octahydrocyclopenta[c]pyrrol-5-yl)ethoxy)-1H-indol-3-yl)cyclobutane-1-carboxamide] | 0.2 to 1
CC1(C(=O)Nc2c[nH]c3ccc(OCCc4ccc(C(F)(F)F)nc4)cc23)COC1 [Compound 372, 3-methyl-N-(5-(2-(6-(trifluoromethyl)pyridin-3-yl)ethoxy)-1H-indol-3-yl)oxetane-3-carboxamide] | 1 to 5
CC1(C(=O)Nc2c[nH]c3ccc(OC4CC(c5ccc(C(F)(F)F)nc5)C4)cc23)CC1 (stereo not drawn) [Compound 376, 1-methyl-N-(5-(3-(6-(trifluoromethyl)pyridin-3-yl)cyclobutoxy)-1H-indol-3-yl)cyclopropane-1-carboxamide] | 0.2 to 1
CC1(C(=O)Nc2c[nH]c3ccc(O[C@H]4C[C@@H](c5ccc(C(F)(F)F)cc5)C4)cc23)COC1 [Compound 378, 3-methyl-N-(5-(cis-3-(4-(trifluoromethyl)phenyl)cyclobutoxy)-1H-indol-3-yl)oxetane-3-carboxamide] | 0.2 to 1
CC(=O)Nc1c[nH]c2ccc(CCOc3ccc4c(c3)N(Cc3ccccc3)C(=O)CS4)cc12 [Compound 386, N-(5-(2-((4-benzyl-3-oxo-3,4-dihydro-2H-benzo[b][1,4]thiazin-6-yl)oxy)ethyl)-1H-indol-3-yl)acetamide] | 1 to 5

Results, then the compound that gave them:

EC50 [µM] | SMILES
0.2 to 1 | N#CC1(C(=O)Nc2c[nH]c3ccc(OCC[C@@H]4C[C@@H]5CN(CC(F)(F)F)C[C@@H]5C4)cc23)CC1 [Compound 370, 1-cyano-N-(5-(2-((3aR,5r,6aS)-2-(2,2,2-trifluoroethyl)octahydrocyclopenta[c]pyrrol-5-yl)ethoxy)-1H-indol-3-yl)cyclopropane-1-carboxamide]
1 to 5 | O=C(Nc1c[nH]c2ccc(OCCc3ccc(C(F)(F)F)nc3)cc12)C1COC1 [Compound 373, N-(5-(2-(6-(trifluoromethyl)pyridin-3-yl)ethoxy)-1H-indol-3-yl)oxetane-3-carboxamide]
1 to 5 | CC(=O)Nc1c[nH]c2cc(F)c(CCOc3ccc(C(F)(F)F)cc3)c(F)c12 [Compound 375, N-(4,6-difluoro-5-(2-(4-(trifluoromethyl)phenoxy)ethyl)-1H-indol-3-yl)acetamide]
5 to 100 | CC(=O)Nc1c[nH]c2ccc(CCOC3CN(CC(F)(F)F)C3)cc12 [Compound 377, N-(5-(2-((1-(2,2,2-trifluoroethyl)azetidin-3-yl)oxy)ethyl)-1H-indol-3-yl)acetamide]
0.2 to 1 | CC1(C(=O)Nc2c[nH]c3ccc(OCC[C@@H]4C[C@@H]5CN(CC(F)(F)F)C[C@@H]5C4)cc23)CC1 [Compound 379, 1-methyl-N-(5-(2-((3aR,5r,6aS)-2-(2,2,2-trifluoroethyl)octahydrocyclopenta[c]pyrrol-5-yl)ethoxy)-1H-indol-3-yl)cyclopropane-1-carboxamide]
0.04 to 0.2 | CC1(F)CC(C(=O)Nc2c[nH]c3ccc(OCCc4ccc(C(F)(F)F)cc4)cc23)C1 (stereo not drawn) [Compound 380, 3-fluoro-3-methyl-N-(5-(4-(trifluoromethyl)phenethoxy)-1H-indol-3-yl)cyclobutane-1-carboxamide]
0.2 to 1 | O=C(Nc1c[nH]c2ccc(OCc3ccc(C(F)(F)F)cc3)cc12)C1COC1 [Compound 381, N-(5-((4-(trifluoromethyl)benzyl)oxy)-1H-indol-3-yl)oxetane-3-carboxamide]
0.2 to 1 | O=C(Nc1c[nH]c2ccc(OCC[C@@H]3C[C@@H]4CN(CC(F)(F)F)C[C@@H]4C3)cc12)C1COC1 [Compound 383, N-(5-(2-((3aR,5r,6aS)-2-(2,2,2-trifluoroethyl)octahydrocyclopenta[c]pyrrol-5-yl)ethoxy)-1H-indol-3-yl)oxetane-3-carboxamide]
0.2 to 1 | O=C(Nc1c[nH]c2ccc(CCCn3cc(C(F)(F)F)cn3)cc12)C1CC1 [Compound 384, N-(5-(3-(4-(trifluoromethyl)-1H-pyrazol-1-yl)propyl)-1H-indol-3-yl)cyclopropanecarboxamide]
5 to 100 | CC(=O)Nc1c[nH]c2ccc(OCCc3cnn(C(F)F)c3)cc12 [Compound 385, N-(5-(2-(1-(difluoromethyl)-1H-pyrazol-4-yl)ethoxy)-1H-indol-3-yl)acetamide]
